Results from article PMC11714206, “Massively Parallel Screening of Toll/Interleukin‐1 Receptor (TIR)‐Derived Peptides Reveals Multiple Toll‐Like Receptors (TLRs)‐Targeting Immunomodulatory Peptides” (Advanced Science, 2024).

Biological target: T1, MyD88^TIR (Homo sapiens, UniProt Q99836)
T1 construct: MyD88 (residues 148–296); 6xHis; made in house; host or cells: E. coli BL21 (DE3)
Experiment: T‐Surf phage library (P8 and P3) selection against MyD88^TIR, four rounds, NGS read counts
Type: binding
Settings: for P8_MyD88 Rank (after) / P8_MyD88 Rank (before): P8 library; for Population: 4th round of selection against MyD88 TIR, share of NGS reads; for P3_MyD88 Rank (after) / P3_MyD88 Rank (before): P3 library
Method in brief: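 Library of 190 946 TIR‐derived peptides on P8 or P3 was panned on immobilized TIR domain coated at 5 µg mL^−1, BSA‐blocked, 1 h binding at RT, PBS/0.5% Tween‐20 washes, HCl elution, TG1 amplification. Fourth‐round pools were PCR‐barcoded, sequenced (100 bp paired‐end, Phred ≥30), and peptides ranked by read counts.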

[1] = selection against MyD88 TIR, rank by count after grouping
[2] = selection against MyD88 TIR, rank by count before grouping
[3] = P8_MyD88 pool: P8 T-Surf phage library
[4] = P8_MyD88: rank by count after grouping
[5] = P8_MyD88: rank by count before grouping
[6] = selection against MyD88, rank by count after grouping
[7] = selection against MyD88, rank by count before grouping
[8] = P8_MyD88: rank by NGS read count after grouping
[9] = P8_MyD88: rank by NGS read count before grouping
[10] = 4R selection against MyD88, rank after grouping
[11] = 4R selection against MyD88, rank before grouping
[12] = selection against MyD88, rank after grouping
[13] = selection against MyD88, rank before grouping
[14] = P3_MyD88: rank by count after grouping
[15] = P3_MyD88: rank by count before grouping
[16] = P3_MyD88 pool: P3 T-Surf phage library

T1 sequence (Q99836 148-296): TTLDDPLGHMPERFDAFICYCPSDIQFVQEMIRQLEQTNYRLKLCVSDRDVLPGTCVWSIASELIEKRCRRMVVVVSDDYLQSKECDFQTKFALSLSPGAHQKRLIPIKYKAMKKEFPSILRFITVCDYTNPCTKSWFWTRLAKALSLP

## DPQDLEWFYERLFSLI
[1]
  P8_MyD88 Rank (after): 209
[2]
  P8_MyD88 Rank (before): 1112

## LVYHWIDWEYFVGIED
[3]
  Population: 0.0108%

## LGYHWIDWEYYVGTED
[4]
  Rank (after): 440
[5]
  Rank (before): 3301

## DWEWDYRLPNLEGPAC
[6]
  P8_MyD88 Rank (after): 745
[7]
  P8_MyD88 Rank (before): 2487

## VTSSWALEELRHIMEL
[8]
  Rank (after): 947
[9]
  Rank (before): 2269

## YLLLSVLHTRSARGYV
[8]
  Rank (after): 925
[9]
  Rank (before): 2010

## NGHESENIKEIVDTIL
[1]
  P3_MyD88 Rank (after): 212
[2]
  P3_MyD88 Rank (before): 3377

## LGYHWIVWEYLVGIKD
[10]
  P8_MyD88 Rank (after): 652
[11]
  P8_MyD88 Rank (before): 3245

## YTALPNSGFHTIRDNE
[12]
  P3_MyD88 Rank (after): 552
[13]
  P3_MyD88 Rank (before): 1712

## VSSFISYLIAAFNRQG
[4]
  Rank (after): 116
[5]
  Rank (before): 124
[3]
  Population: 0.0173%

## LGYHCMDWEYFVGIED
[4]
  Rank (after): 390
[5]
  Rank (before): 3228

## DPQDREWFYERLVSLF
[1]
  P8_MyD88 Rank (after): 277
[2]
  P8_MyD88 Rank (before): 2957

## PSEVRNRPAAWRKRL
[1]
  P3_MyD88 Rank (after): 195
[2]
  P3_MyD88 Rank (before): 1127

## QDLGWFYERLVSLF
[10]
  P8_MyD88 Rank (after): 590
[11]
  P8_MyD88 Rank (before): 3565

## AWIWGWREALVYIGGI
[1]
  P8_MyD88 Rank (after): 254
[2]
  P8_MyD88 Rank (before): 448

## WALDELLKILCANKTM
[6]
  P8_MyD88 Rank (after): 766
[7]
  P8_MyD88 Rank (before): 1477

## DPQNLQWFYERLVILI
[4]
  Rank (after): 392
[5]
  Rank (before): 3031

## SLLYDHLRWLGIRAFL
[12]
  P8_MyD88 Rank (after): 541
[13]
  P8_MyD88 Rank (before): 3759

## LVAHRFSKKMKIFATM
[10]
  P3_MyD88 Rank (after): 621
[11]
  P3_MyD88 Rank (before): 2315

## NYATSRWALDELVRIF
[1]
  P8_MyD88 Rank (after): 227
[2]
  P8_MyD88 Rank (before): 419

## WFWDKLKYALHRNRI
[14]
  Rank (after): 406
[15]
  Rank (before): 1414

## IFISHLYNSLTNAGIY
[4]
  Rank (after): 178
[5]
  Rank (before): 227

## DPQDLDWFYERLVSQM
[4]
  Rank (after): 183
[5]
  Rank (before): 466

## NFGYSTWALDELVKIM
[4]
  Rank (after): 123
[5]
  Rank (before): 132
[3]
  Population: 0.0135%

## DHHLDLPRGKAIKPAILR
[14]
  Rank (after): 162
[15]
  Rank (before): 2019

## VDPSHLRKQSGEFG
[6]
  P3_MyD88 Rank (after): 683
[7]
  P3_MyD88 Rank (before): 1770

## DPQDLEWFYERLVSLFL
[1]
  P8_MyD88 Rank (after): 244
[2]
  P8_MyD88 Rank (before): 2882

## DPQLLDWLYERLRRPV
[8]
  Rank (after): 999
[9]
  Rank (before): 3024

## DFLSHLIKRLAVCTS
[8]
  Rank (after): 896
[9]
  Rank (before): 2347

## WALNELQQILHARELF
[4]
  Rank (after): 445
[5]
  Rank (before): 1549

## DHHLDLPRGKAIKPEFW
[1]
  P3_MyD88 Rank (after): 241
[2]
  P3_MyD88 Rank (before): 951

## ELDGDFGRNLWDLWRL
[1]
  P8_MyD88 Rank (after): 249
[2]
  P8_MyD88 Rank (before): 477

## ELDFSHFWLFDGHAGGEA
[3]
  Population: 0.02%

## YKLALHFRDWLVGVH
[8]
  Rank (after): 901
[9]
  Rank (before): 2137

## SSFREQLRPALKERLP
[1]
  P3_MyD88 Rank (after): 215
[2]
  P3_MyD88 Rank (before): 1210

## LFWDRLLYSLHVTE
[12]
  P8_MyD88 Rank (after): 569
[13]
  P8_MyD88 Rank (before): 3208

## MNWCMCGAAKRIAWW
[14]
  Rank (after): 170
[15]
  Rank (before): 1156

## NQWRNALTAAANLA
[16]
  Population: 0.00291%

## QYSHTLLAHTSKFPDE
[14]
  Rank (after): 432
[15]
  Rank (before): 2847

## SDLRVVEDGSVSPLEM
[14]
  Rank (after): 104
[15]
  Rank (before): 1178

## WDFASNMEQLWERLYY
[8]
  Rank (after): 1014
[9]
  Rank (before): 1625

## DPQDTDWFYERLVSMF
[12]
  P8_MyD88 Rank (after): 499
[13]
  P8_MyD88 Rank (before): 2976

## DPQLLVCFYERLVSLF
[10]
  P8_MyD88 Rank (after): 640
[11]
  P8_MyD88 Rank (before): 3023

## DPPVLEWFYESLFSQM
[10]
  P8_MyD88 Rank (after): 601
[11]
  P8_MyD88 Rank (before): 2624

## KDVEGWRDALTKVASL
[16]
  Population: 0.00349%

## AGDKGTDKIQTPLKNA
[12]
  P3_MyD88 Rank (after): 484
[13]
  P3_MyD88 Rank (before): 1942

## WALDEVLKIQDDNETM
[12]
  P8_MyD88 Rank (after): 544
[13]
  P8_MyD88 Rank (before): 1423

## PQDQEWFYERIVSLP
[6]
  P8_MyD88 Rank (after): 726
[7]
  P8_MyD88 Rank (before): 3492

## YSQHDVLWVKNFLSHI
[8]
  Rank (after): 1025
[9]
  Rank (before): 2122

## PEKDNGGENAFINTL
[6]
  P3_MyD88 Rank (after): 731
[7]
  P3_MyD88 Rank (before): 2715

## NYASSTFALNELHYILRFI
[12]
  P8_MyD88 Rank (after): 496
[13]
  P8_MyD88 Rank (before): 3852

## WALAELLQLLHARELF
[4]
  Rank (after): 395
[5]
  Rank (before): 1410

## YKLALHFRDWLLGAYI
[6]
  P8_MyD88 Rank (after): 742
[7]
  P8_MyD88 Rank (before): 2138

## WALDELLQILHARRTE
[6]
  P8_MyD88 Rank (after): 702
[7]
  P8_MyD88 Rank (before): 1457

## DPQDLEWFYERLVSLI
[3]
  Population: 0.01%

## PENDNGGENAFINHIV
[10]
  P3_MyD88 Rank (after): 635
[11]
  P3_MyD88 Rank (before): 2700

## EWIREQRRSALKERLP
[10]
  P3_MyD88 Rank (after): 639
[11]
  P3_MyD88 Rank (before): 2171

## WDFAGNWEQFWDRLSY
[6]
  P8_MyD88 Rank (after): 772
[7]
  P8_MyD88 Rank (before): 1576

## YTALTNSGCPTFCVIA
[14]
  Rank (after): 444
[15]
  Rank (before): 1694

## SWYLDEVAKIIDAMKE
[4]
  Rank (after): 133
[5]
  Rank (before): 144
[3]
  Population: 0.0116%

## DPQDLEWFYERLLAR
[12]
  P8_MyD88 Rank (after): 515
[13]
  P8_MyD88 Rank (before): 2879

## SELRVVDDGSVSPRET
[6]
  P3_MyD88 Rank (after): 741
[7]
  P3_MyD88 Rank (before): 3045

## LAANEIRKEMKTLATI
[6]
  P3_MyD88 Rank (after): 680
[7]
  P3_MyD88 Rank (before): 2326

## PQEQVWFYERQVSLIV
[12]
  P8_MyD88 Rank (after): 533
[13]
  P8_MyD88 Rank (before): 3500
